Values joined by “and” are separate entries in the source; they are usually repeats but may differ in a detail not shown here. Equal values may be shown once. Toxic doses and inconclusive results are not listed. Rule for the calls: active = survival T/C of 150% or more; inactive = T/C below 125% in these data.
System: P388 leukemia ip, CD2F1 mice, survival T/C
Experiment: NCI In Vivo Anticancer Drug Screen. Data for tumor model P388 Leukemia (intraperitoneal) in CD2F1 (CDF1) mice
Settings: endpoint: median survival time, higher = longer survival
Outline: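 Mice carrying the transplanted tumor received test compound or vehicle. Survival was recorded in each group, and the value is the treated-group measurement divided by that of the vehicle-treated control group.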

[1] = dose: 100.0 mg/kg/injection, schedule: Q04DX002 (ip), vehicle: saline with Tween-80
[2] = dose: 50.0 mg/kg/injection, schedule: Q01DX009 (ip), vehicle: saline
[3] = dose: 100.0 mg/kg/injection, schedule: Q01DX009 (ip), vehicle: saline
[4] = dose: 200.0 mg/kg/injection, schedule: Q01DX009 (ip), vehicle: saline
[5] = dose: 50.0 mg/kg/injection, schedule: Q01DX005 (ip), vehicle: Klucel (hydroxypropylcellulose) (HPC)
[6] = dose: 100.0 mg/kg/injection, schedule: Q01DX005 (ip), vehicle: Klucel (hydroxypropylcellulose) (HPC)
[7] = dose: 200.0 mg/kg/injection, schedule: Q01DX005 (ip), vehicle: Klucel (hydroxypropylcellulose) (HPC)
[8] = dose: 60.0 mg/kg/injection, schedule: Q01DX005 (ip), vehicle: saline with Tween-80
[9] = dose: 120.0 mg/kg/injection, schedule: Q01DX005 (ip), vehicle: saline with Tween-80
[10] = dose: 240.0 mg/kg/injection, schedule: Q01DX005 (ip), vehicle: saline with Tween-80
[11] = dose: 25.0 mg/kg/injection, schedule: Q01DX009 (ip), vehicle: saline with Tween-80
[12] = dose: 50.0 mg/kg/injection, schedule: Q01DX009 (ip), vehicle: saline with Tween-80
[13] = dose: 100.0 mg/kg/injection, schedule: Q01DX009 (ip), vehicle: saline with Tween-80
[14] = dose: 100.0 mg/kg/injection, schedule: Q01DX001 (ip), vehicle: saline with Tween-80
[15] = dose: 200.0 mg/kg/injection, schedule: Q01DX001 (ip), vehicle: saline with Tween-80
[16] = dose: 400.0 mg/kg/injection, schedule: Q01DX001 (ip), vehicle: saline with Tween-80

Measured: T/C

CNCCC(Oc1ccc(C(F)(F)F)cc1)c1ccccc1 (stereo unspecified)
inactive: dose: 25.0 mg/kg/injection, schedule: Q04DX002 (ip), vehicle: saline with Tween-80 106 % of control | dose: 50.0 mg/kg/injection, schedule: Q04DX002 (ip), vehicle: saline with Tween-80 106 % of control | [1] 106 % of control

CC1=NN(c2cccc(S(=O)(=O)O)c2)C(=O)C1
inactive: dose: 25.0 mg/kg/injection, schedule: Q01DX009 (ip), vehicle: saline sonified 100 % of control | dose: 50.0 mg/kg/injection, schedule: Q01DX009 (ip), vehicle: saline sonified 100 % of control | [2] 89 % of control | dose: 100.0 mg/kg/injection, schedule: Q01DX009 (ip), vehicle: saline sonified 100 % of control | [3] 95 % of control | [4] 96 % of control

Cc1nc2c(cnn2CN2CCCCC2)c(=O)n1-c1ccccc1
inactive: [5] 100 % of control | [6] 101 % of control | [7] 107 % of control

O=C1c2ccccc2C(=O)N1/N=[N+](\[O-])N1CCOCC1
inactive: dose: 25.0 mg/kg/injection, schedule: Q01DX005 (ip), vehicle: Klucel (hydroxypropylcellulose) (HPC) 90 % of control | [5] 99 % of control | [6] 90 % of control | [7] 101 % of control

C[C@H]1CCC/C=C/[C@@H]2C[C@H](O)C[C@H]2[C@H](O)/C=C/C(=O)O1
inactive: dose: 100.0 mg/kg/injection, schedule: Q04DX003 (ip), vehicle: Klucel (hydroxypropylcellulose) (HPC) 104 % of control | dose: 200.0 mg/kg/injection, schedule: Q04DX003 (ip), vehicle: Klucel (hydroxypropylcellulose) (HPC) 90 % of control

c1ccc(-c2cc(Nc3ccc4c(c3)OCO4)c3cc(C4CCCCC4)ccc3n2)cc1
inactive: [8] 103 % of control | [9] 93 % of control | [10] 89 % of control

O=c1[nH]c2c(c3c1CCCC3)CC1(CC2)OCCO1
inactive: dose: 100.0 mg/kg/injection, schedule: Q04DX002 (ip), vehicle: Klucel (hydroxypropylcellulose) (HPC) 105 % of control | dose: 200.0 mg/kg/injection, schedule: Q04DX002 (ip), vehicle: Klucel (hydroxypropylcellulose) (HPC) 100 % of control | dose: 400.0 mg/kg/injection, schedule: Q04DX002 (ip), vehicle: Klucel (hydroxypropylcellulose) (HPC) 108 % of control

O=C1NC(=O)/C(=C/C=C/c2ccccc2)S1
inactive: [11] 102 % of control and 111 % of control | [12] 102 % of control and 116 % of control and 118 % of control | [13] 93 % of control | dose: 200.0 mg/kg/injection, schedule: Q01DX009 (ip), vehicle: saline with Tween-80 123 % of control

N#CC1(OC2OC(CO)C(O)C(O)C2O)C=CC(O)C1O (stereo unspecified)
inactive: dose: 25.0 mg/kg/injection, schedule: Q01DX005 (ip), vehicle: saline 106 % of control | dose: 50.0 mg/kg/injection, schedule: Q01DX005 (ip), vehicle: saline 120 % of control | dose: 100.0 mg/kg/injection, schedule: Q01DX005 (ip), vehicle: saline 111 % of control and 97 % of control | dose: 200.0 mg/kg/injection, schedule: Q01DX005 (ip), vehicle: saline 121 % of control and 97 % of control | dose: 400.0 mg/kg/injection, schedule: Q01DX005 (ip), vehicle: saline 102 % of control

CC(=O)O[C@@H]1[C@@H](O)[C@H]2O[C@@H]3C=C(C)CC[C@]3(CO)[C@]1(C)[C@@]21CO1
inactive: dose: 1.25 mg/kg/injection, schedule: Q01DX009 (ip), vehicle: saline with Tween-80 110 % of control and 120 % of control | dose: 2.5 mg/kg/injection, schedule: Q01DX009 (ip), vehicle: saline with Tween-80 118 % of control and 121 % of control | dose: 5.0 mg/kg/injection, schedule: Q01DX009 (ip), vehicle: saline with Tween-80 120 % of control | dose: 20.0 mg/kg/injection, schedule: Q01DX009 (ip), vehicle: saline with Tween-80 93 % of control

O=C(CBr)Nc1ncc([N+](=O)[O-])s1
inactive: dose: 6.25 mg/kg/injection, schedule: Q01DX009 (ip), vehicle: Klucel (hydroxypropylcellulose) (HPC) 102 % of control | dose: 12.5 mg/kg/injection, schedule: Q01DX009 (ip), vehicle: Klucel (hydroxypropylcellulose) (HPC) 104 % of control

O=C(O)CC(=O)C(=O)O
inactive: [1] 98 % of control | dose: 100.0 mg/kg/injection, schedule: Q04DX002 (ip), vehicle: saline 101 % of control | dose: 200.0 mg/kg/injection, schedule: Q04DX002 (ip), vehicle: saline with Tween-80 112 % of control | dose: 200.0 mg/kg/injection, schedule: Q04DX002 (ip), vehicle: saline 97 % of control | dose: 400.0 mg/kg/injection, schedule: Q04DX002 (ip), vehicle: saline with Tween-80 112 % of control

CN(C)CCNC(=O)c1noc2c1CSc1ccccc1-2
inactive: [14] 101 % of control | [15] 101 % of control | [16] 100 % of control

c1ccc(Sc2cccc3ccccc23)cc1
inactive: dose: 100.0 mg/kg/injection, schedule: Q04DX003 (ip), vehicle: saline with Tween-80 95 % of control | dose: 200.0 mg/kg/injection, schedule: Q04DX003 (ip), vehicle: saline with Tween-80 109 % of control | dose: 400.0 mg/kg/injection, schedule: Q04DX003 (ip), vehicle: saline with Tween-80 104 % of control

Nc1ncnc2c1ccn2CC(O)COP(=O)(O)O (stereo unspecified)
inactive: dose: 50.0 mg/kg/injection, schedule: Q01DX005 (ip), vehicle: distilled water + alcohol 104 % of control | dose: 100.0 mg/kg/injection, schedule: Q01DX005 (ip), vehicle: distilled water + alcohol 100 % of control | dose: 200.0 mg/kg/injection, schedule: Q01DX005 (ip), vehicle: distilled water + alcohol 100 % of control

O=[N+]([O-])c1ccc(N=Nc2ccc(N(CCCl)CCCl)cc2)c([N+](=O)[O-])c1
inactive: dose: 100.0 mg/kg/injection, schedule: Q01DX001 (ip), vehicle: Klucel (hydroxypropylcellulose) (HPC) 106 % of control | dose: 200.0 mg/kg/injection, schedule: Q01DX001 (ip), vehicle: Klucel (hydroxypropylcellulose) (HPC) 108 % of control | dose: 400.0 mg/kg/injection, schedule: Q01DX001 (ip), vehicle: Klucel (hydroxypropylcellulose) (HPC) 103 % of control

CC(C)c1nc2ccc(Cl)cc2[nH]1
inactive: dose: 50.0 mg/kg/injection, schedule: Q01DX005 (ip), vehicle: saline with Tween-80 105 % of control | dose: 100.0 mg/kg/injection, schedule: Q01DX005 (ip), vehicle: saline with Tween-80 100 % of control

C[CH2][Ge]([CH2]C)[CH2]/C=C\[CH2][Ge]([CH2]C)[CH2]C
inactive: [12] 94 % of control | [13] 117 % of control

CC(CSc1ccccc1)C(Sc1ccccc1)Sc1ccccc1 (stereo unspecified)
inactive: [2] 102 % of control | [3] 98 % of control | [4] 106 % of control

COc1cc(C(=O)OC2c3ccccc3CCC2N(C)C)cc(OC)c1OC (stereo unspecified)
inactive: [11] 98 % of control | [12] 91 % of control

C/C=C(\C)c1cc(=O)c2c(C)cc3c(c2o1)C(=O)c1c(OC)cccc1C3=O
inactive: [14] 96 % of control | [15] 93 % of control | [16] 89 % of control

CSc1nc(NC2OC(CO)C(O)C(O)C2O)c(Cl)c(=O)[nH]1 (stereo unspecified)
inactive: [8] 97 % of control | [9] 97 % of control | [10] 98 % of control

Source: PubChem BioAssay AID330 (DTP/NCI, 2004)
